# According to paper PMC12865225 (Clinical and Translational Science, 2026):
# Read-outs that look alike come from different tables or passages of the source.
# Assays:
# OAT1 = test system: T1, OAT1; test: OAT1 inhibition, fluorescein uptake into HEK293 cells; format: cell-based; conditions: human, HEK293 cells transiently expressing OAT1, pH 7.4, probe fluorescein 5 µM; 200 μM inhibitor, 5 μM fluorescein; read-out: inhibition of fluorescein transport into OAT1-expressing cells
# T1 construct: expressed in transfected cells; host or cells: HEK293 (recombinant baculovirus-mediated transduction)
# Method: The human transporters OATP1B1, OATP1B3, OATP2B1, and OAT1‐OAT4 and a negative control protein (enhanced yellow fluorescent protein, eYFP) were transiently expressed in human embryonic kidney 293 (HEK293) cells by recombinant baculovirus‐mediated transduction. Baculoviruses carrying human genes for the transporters were prepared as reported previously. HEK293 cells were cultured in DMEM containing 10% fetal bovine serum at 37°C and 5% CO2 and passaged two to three times per week. For the transport studies, 0.05 × 10^6 cells for 48‐well plates (OATPs) or 0.06 × 10^6 cells for 24‐well plates (OATs) were seeded onto cell‐culture treated well plates coated with poly‐D‐lysine. […]
# In the OATP inhibition assays, inhibitors in warm TP‐buffer were directly applied to cells after media removal, followed by a 30‐min preincubation step in the presence of inhibitors. […] OAT1 and OAT3 cells were lysed with 200 μL of 1 M sodium hydroxide for 10 min, and 150 μL of these samples were transferred to a black well plate for fluorescein quantification. […]
# For the inhibition data analysis, the average of measured concentrations in the control cells was subtracted from the average of measured concentrations in transporter‐expressing cells for each inhibitor concentration and then normalized to the vehicle sample that represents 100% transport activity. […]
# MRP2 = test system: T2, MRP2; test: Efflux transport assay in MRP2 HEK293 membrane vesicles; format: biochemical, human; conditions: 5 and 50 µM, 10 min
# T2 construct: made in house; host or cells: membrane vesicles from HEK293 cells expressing the transporter
# [1] = cited from earlier work; for Total CL: mean value from IV studies
# OATP1B3 = molecular target: T3, OATP1B3 (Homo sapiens, UniProt Q9NPD5); test: Uptake transport assay in OATP1B3-expressing HEK293 cells; format: cell-based; conditions: for transport by OATP1B3: 2 and 50 μM, 10 min; for Km at 2 min: human, HEK293 cells transiently expressing OATP1B3, pH 7.4, uptake; for Km / Vmax (pmol/106 cells/min) OATP1B3: uptake; for Km at 2 min / Km / Vmax (pmol/106 cells/min) OATP1B3: 2 min
# T3 construct: expressed in transfected cells; host or cells: HEK293 (recombinant baculovirus-mediated transduction)
# T3 sequence (Q9NPD5 1-702): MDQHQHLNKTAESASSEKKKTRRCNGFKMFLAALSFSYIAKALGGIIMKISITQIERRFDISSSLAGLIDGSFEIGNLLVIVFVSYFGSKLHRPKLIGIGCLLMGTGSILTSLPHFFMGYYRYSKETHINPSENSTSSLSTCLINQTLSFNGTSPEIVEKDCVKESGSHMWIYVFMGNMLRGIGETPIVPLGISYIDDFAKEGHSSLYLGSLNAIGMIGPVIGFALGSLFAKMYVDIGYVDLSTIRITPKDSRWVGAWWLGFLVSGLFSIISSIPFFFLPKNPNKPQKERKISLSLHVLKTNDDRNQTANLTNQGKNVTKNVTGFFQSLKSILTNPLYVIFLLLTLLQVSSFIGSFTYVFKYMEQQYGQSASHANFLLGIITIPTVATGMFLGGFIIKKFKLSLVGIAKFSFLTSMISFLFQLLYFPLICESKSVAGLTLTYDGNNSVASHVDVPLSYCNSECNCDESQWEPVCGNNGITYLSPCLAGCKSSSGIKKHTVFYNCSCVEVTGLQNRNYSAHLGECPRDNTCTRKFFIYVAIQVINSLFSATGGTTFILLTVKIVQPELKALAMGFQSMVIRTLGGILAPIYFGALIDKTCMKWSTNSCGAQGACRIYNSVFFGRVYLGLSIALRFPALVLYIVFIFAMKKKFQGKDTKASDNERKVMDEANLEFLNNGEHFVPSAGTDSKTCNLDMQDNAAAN
# Method: The human transporters OATP1B1, OATP1B3, OATP2B1, and OAT1‐OAT4 and a negative control protein (enhanced yellow fluorescent protein, eYFP) were transiently expressed in human embryonic kidney 293 (HEK293) cells by recombinant baculovirus‐mediated transduction. Baculoviruses carrying human genes for the transporters were prepared as reported previously. HEK293 cells were cultured in DMEM containing 10% fetal bovine serum at 37°C and 5% CO2 and passaged two to three times per week. For the transport studies, 0.05 × 10^6 cells for 48‐well plates (OATPs) or 0.06 × 10^6 cells for 24‐well plates (OATs) were seeded onto cell‐culture treated well plates coated with poly‐D‐lysine. After 1 day, cells were transduced to produce recombinant proteins by changing media to DMEM containing 30 μL (48‐well plates) or 60 μL (24‐well plates) of recombinant baculovirus and 3 mM (OATs) or 5 mM (OATPs) sodium butyrate in a total media volume of 500 μL. The cells were cultured for a further 2 days before the transport assays.
# For the transport studies, media were removed and cells were washed once with warm transport uptake buffer (TP‐buffer—pH 7.4 HBSS with 25 mM HEPES and 4 mM sodium bicarbonate). Each experiment included triplicate (OATP) or duplicate (OAT) samples for every test condition. The uptake was started by removing liquid from wells and applying warm TP‐buffer (200 μL for 24‐well plates or 125 μL for 48‐well plates) containing a test compound to cells. Transport assays were terminated after a pre‐specified incubation time (reported in figure legends) by removing substrate solution and washing cells three times with cold TP‐buffer (300 μL for 48‐well plates and 400 μL for 24‐well plates). For the liquid chromatography mass spectrometry (LC–MS) analysis, compounds were extracted from cells with 125 μL (48‐well plates) or 250 μL (24‐well plates) of an ultrapure‐water solution containing 75% methanol and 0.1% formic acid, shaking at 250 RPM for 30 min. […] Samples were transferred to well plates, centrifuged at 3000 g for 30 min, and transferred to a new well plate for the analysis.
# Equation (2) (the Michaelis–Menten equation) was fit to the transport kinetic assay data. […] (2) Uptake=Vmax×S/Km+S
# [2] = 6.25 mg/kg PO, ref Jusko et al. 1975 11
# [3] = 250 mg IV, ref DeSante et al. 1980 7
# [4] = 250 mg PO, ref Sutherland et al. 1970 10
# [5] = 500 mg PO, ref Beringer et al. 2008 12
# [6] = 500 mg PO, ref Gravenkemper et al. 1965 13
# [7] = 500 mg PO, ref Røder et al. 1995 14
# [8] = 750 mg PO, ref Røder et al. 1995 14
# [9] = 1000 mg PO, ref Gravenkemper et al. 1965 13
# [10] = 1000 mg PO, ref Putnam et al. 2005 9
# [11] = 1000 mg PO, ref Røder et al. 1995 14
# [12] = 125 mg PO, ref Sutherland et al. 1970 10
# [13] = 250 mg PO, ref Bodey et al. 1972 20
# [14] = 500 mg IV, ref Landersdorfer et al. 2007 15
# [15] = 500 mg IV, ref Landersdorfer et al. 2008 17
# [16] = 500 mg PO, ref Bodey et al. 1972 20
# [17] = 1000 mg IV, ref Adam et al. 1983 18
# [18] = 1000 mg IV, ref Landersdorfer et al. 2007 15
# [19] = 1000 mg IV, ref Landersdorfer et al. 2008 17
# [20] = 1000 mg IV, ref Wise et al. 1980 19
# [21] = 1000 mg PO MD (day 9), ref Iversen et al. 2023 22
# [22] = 1000 mg PO MD (day 27), ref Iversen et al. 2023 22
# [23] = 1000 mg PO SD, ref Iversen et al. 2023 22
# [24] = 1000 mg PO, ref Everts et al. 2020 16
# [25] = 1000 mg PO, ref Gardiner et al. 2018 21
compound,measurement,setting,value
Cc1onc(-c2c(Cl)cccc2Cl)c1C(=O)N[C@@H]1C(=O)N2[C@@H]1SC(C)(C)[C@@H]2C(=O)O [Dicloxacillin],"inhibition at 5 min, 200 μM",OAT1,< 50%
same,transport by MRP2,MRP2,did not transport
same,AUC (mg*h/l) Obs,[1]; [2],33.8 mg·h/L
same,Cmax (mg/l) Obs,[1]; [2],18.4 mg/L
same,AUC (mg*h/l) Obs,[1]; [3],23.8 mg·h/L
same,Cmax (mg/l) Obs,[1]; [3],56.5 mg/L
same,AUC (mg*h/l) Obs,[1]; [4],19.1 mg·h/L
same,Cmax (mg/l) Obs,[1]; [4],11.0 mg/L
same,AUC (mg*h/l) Obs,[1]; [5],36.6 mg·h/L
same,Cmax (mg/l) Obs,[1]; [5],11.1 mg/L
same,AUC (mg*h/l) Obs,[1]; [6],41.1 mg·h/L
same,Cmax (mg/l) Obs,[1]; [6],17.4 mg/L
same,AUC (mg*h/l) Obs,[1]; [7],30.8 mg·h/L
same,Cmax (mg/l) Obs,[1]; [7],17.3 mg/L
same,AUC (mg*h/l) Obs,[1]; [8],66.8 mg·h/L
same,Cmax (mg/l) Obs,[1]; [8],34.4 mg/L
same,AUC (mg*h/l) Obs,"[1]; 1000 mg IV, ref Nauta and Mattie 1976 8",114 mg·h/L
same,AUC (mg*h/l) Obs,[1]; [9],72.4 mg·h/L
same,Cmax (mg/l) Obs,[1]; [9],28.9 mg/L
same,AUC (mg*h/l) Obs,[1]; [10],78.0 mg·h/L
same,Cmax (mg/l) Obs,[1]; [10],31.4 mg/L
same,AUC (mg*h/l) Obs,[1]; [11],82.5 mg·h/L
same,Cmax (mg/l) Obs,[1]; [11],30.7 mg/L
same,"fraction absorbed, range reported",[1]; dicloxacillin capsules,35 – 76%
same,Total CL,[1],8.885 L/h
same,transport by OATP1B3,OATP1B3,transported
same,Km at 2 min,OATP1B3,2.81 µM
same,Km,OATP1B3,3 µM
same,Vmax (pmol/106 cells/min) OATP1B3,OATP1B3,2.69 pmol/106 cells/min
Cc1onc(-c2c(F)cccc2Cl)c1C(=O)N[C@@H]1C(=O)N2[C@@H]1SC(C)(C)[C@@H]2C(=O)O [Flucloxacillin],"inhibition at 5 min, 200 μM",OAT1,< 50%
same,transport by MRP2,MRP2,did not transport
same,AUC (mg*h/l) Obs,[1]; [12],8.28 mg·h/L
same,Cmax (mg/l) Obs,[1]; [12],5.8 mg/L
same,AUC (mg*h/l) Obs,[1]; [13],14.6 mg·h/L
same,Cmax (mg/l) Obs,[1]; [13],5.7 mg/L
same,AUC (mg*h/l) Obs,[1]; [4],14.4 mg·h/L
same,Cmax (mg/l) Obs,[1]; [4],11.0 mg/L
same,AUC (mg*h/l) Obs,[1]; [14],60.9 mg·h/L
same,Cmax (mg/l) Obs,[1]; [14],86.8 mg/L
same,AUC (mg*h/l) Obs,[1]; [15],54.8 mg·h/L
same,Cmax (mg/l) Obs,[1]; [15],87.7 mg/L
same,AUC (mg*h/l) Obs,[1]; [16],29.1 mg·h/L
same,Cmax (mg/l) Obs,[1]; [16],11.4 mg/L
same,Cmax (mg/l) Obs,"[1]; 500 mg PO, ref Sutherland et al. 1970 10",14.7 mg/L
same,AUC (mg*h/l) Obs,[1]; [8],67.8 mg·h/L
same,Cmax (mg/l) Obs,[1]; [8],34.5 mg/L
same,AUC (mg*h/l) Obs,[1]; [17],141 mg·h/L
same,Cmax (mg/l) Obs,[1]; [17],236 mg/L
same,AUC (mg*h/l) Obs,[1]; [18],122 mg·h/L
same,Cmax (mg/l) Obs,[1]; [18],167 mg/L
same,AUC (mg*h/l) Obs,[1]; [19],113 mg·h/L
same,Cmax (mg/l) Obs,[1]; [19],173 mg/L
same,AUC (mg*h/l) Obs,[1]; [20],73.6 mg·h/L
same,Cmax (mg/l) Obs,[1]; [20],140 mg/L
same,AUC (mg*h/l) Obs,[1]; [21],56 mg·h/L
same,Cmax (mg/l) Obs,[1]; [21],20 mg/L
same,AUC (mg*h/l) Obs,[1]; [22],64 mg·h/L
same,Cmax (mg/l) Obs,[1]; [22],24 mg/L
same,AUC (mg*h/l) Obs,[1]; [23],51 mg·h/L
same,Cmax (mg/l) Obs,[1]; [23],21 mg/L
same,AUC (mg*h/l) Obs,[1]; [24],82 mg·h/L
same,Cmax (mg/l) Obs,[1]; [24],31 mg/L
same,AUC (mg*h/l) Obs,[1]; [25],71.6 mg·h/L
same,Cmax (mg/l) Obs,[1]; [25],27.4 mg/L
same,ka reported range,[1],0.17 to 18.2 h⁻¹
same,CLR,[1]; mean from reported IV studies,5.1 L/h
same,Total CL,[1],7.75 L/h
same,transport by OATP1B3,OATP1B3,transported
same,Km at 2 min,OATP1B3,18.3 µM
same,Km,OATP1B3,10 to 18 µM
same,Vmax (pmol/106 cells/min) OATP1B3,OATP1B3,6.02 pmol/106 cells/min
